# Measurements published in article PMC11188305, “Reproductive and fetal toxicity studies of histamine H3 receptor antagonist DL76 used in mice to prevent maximal electroshock-induced seizure” (Frontiers in Pharmacology, 2024).
# Assays:
# [1] = tested on: experimental seizure models; set-up: method as in earlier work; settings: acute and chronic experimental seizure models; ref Brown et al., 2001; Vohora et al., 2010; Witkin and Nelson, 2004; Sadek et al., 2015; Bastaki et al., 2018; cited from earlier work
# [2] = tested on: photosensitivity seizure model; set-up: method as in Lamb, 2020; settings: adult patients; ref Lamb, 2020; cited from earlier work
# [3] = tested on: MES-induced seizures in mice; experiment: Maximal electroshock (MES)-induced seizure, duration of tonic hind limb extension (THLE); type: in vivo, C57BL/6J mice
# Excerpt: As previously described and with a slight modification in the intensity applied, seizures were elicited in mice with a 50-Hz alternating current of 120 mA intensity ([Kaminski et al., 2015]; [Song et al., 2020]; [Xiao et al., 2021]; [Hua et al., 2023]). The current was applied through ear electrodes for 0.2 s. Protection against the spread of MES-induced convulsion was defined as the abolition of the tonic hind limb extension (THLE) component of the seizure ([Kaminski et al., 2015]; [Song et al., 2020]; [Xiao et al., 2021]; [Hua et al., 2023]). The animals were divided into the following experimental groups, with eight mice in each: the control group injected with saline, the positive control group injected with 300 mg/kg of VPA (the minimal dose of VPA that protected animals against the spread of MES-induced convulsions without mortality in mice) ([Sadek et al., 2015]; [Bastaki et al., 2018]), and four groups that were administered the test compound DL76 at doses of 7.5 mg/kg, 15 mg/kg, 30 mg/kg, or 60 mg/kg. All drugs were administered 30–45 min before the MES challenge. In a further group of eight mice, the most promising and protective dose of DL76 (60 mg/kg, i.p.) was co-injected with RAM (10 mg/kg, i.p.), 30 min apart and 15 min prior to the MES test. Protection against the spread of MES-induced convulsion was defined as the abolition of the THLE component of the convulsion ([Sadek et al., 2015]; [Alachkar et al., 2018]; [Bastaki et al., 2018]).
# Statistical analyses employed SPSS 26.0 (IBM Middle East, Dubai, UAE). Data were presented as means ± SEM. […] Fetal abnormality data were presented as counts and percentages. Fisher’s exact test compared the percentages of abnormalities between the control group (saline) and the different dose groups. All tests were two-tailed, and significance was set at p < 0.05.
# [4] = tested on: MES-induced seizures in mice; set-up: method as in Sadek et al., 2015; Bastaki et al., 2018; settings: ref Sadek et al., 2015, Bastaki et al., 2018; cited from earlier work
# [5] = tested on: C57BL/6 mice; set-up: method as in Chateauvieux et al., 2010; settings: ref Chateauvieux et al., 2010; cited from earlier work
smiles,measurement,setting,value
CCC(C)(C)c1ccc(OCCCN2CCCCC2)cc1 [DL77],anticonvulsant efficacy,[1],anticonvulsant efficacy
Clc1ccc(CCCOCCCN2CCCCC2)cc1 [PIT],effects against the photosensitivity seizure model,[2],protective effects
"C[C@@H](N)Cc1c[nH]cn1 [RAM, (R)-α-methylhistamine, reference compound]",effect of RAM alone on MES-induced convulsions,"[3]; female adult mice, RAM 10 mg/kg i.p., p = 0.91 saline-saline vs. saline-RAM",results similar to those witnessed in male adult mice
same,effect on MES-induced convulsions when injected alone,"[3]; male adult mice, RAM 10 mg/kg i.p., p = 0.602",did not affect MES-induced convulsions
same,activity of RAM injected alone in MES-induced convulsion,"[3]; mice, both sexes, RAM 10 mg/kg",neither a protective nor an epileptogenic activity
"CCCC(CCC)C(=O)O [VPA, valproic acid, reference compound]",difference of protective effects between male and female mice,"[3]; VPA 300 mg/kg i.p., p = 0.164",no significant differences
same,protection against MES-induced convulsions,"[3]; female adult mice, VPA 300 mg/kg i.p.",significantly protected
same,minimal dose that protected animals against the spread of MES-induced convulsions without mortality,[4],300 mg/kg
same,malformations,[5],induce malformations
S=C(NC1CCCCC1)N1CCC(c2cnc[nH]2)CC1 [thioperamide],anticonvulsant efficacy,[1],anticonvulsant efficacy
